Earlier results, collected in PMC11734723 (Science Advances, 2025).

Columns and labels:
Orai channels = conditions: cited from earlier work
[1] = system: collagen-induced arthritis (CIA) mouse model; conditions: administered beginning at the time of arthritis induction; cited from earlier work
[2] = system: RANKL-induced osteoclast differentiation; conditions: cited from earlier work

Question: For `CCC(=O)Nc1ccc(Cl)c(Cl)c1` [3,4-dichloropropionanilide], which “effect on Orai channels” value (Orai channels) is on record?
Answer: inhibits

Question: And the effect on arthritis [1]?
Answer: reduces arthritis

Question: What about the “inhibition of RANKL-induced osteoclastogenesis” value ([2]; 100 nM) of the same compound?
Answer: failed to inhibit

Question: And the “formation of bone-degrading osteoclasts” value ([2]; in vitro)?
Answer: reduced

Question: What about the “concentration needed to block RANKL-induced osteoclast differentiation” value ([2]; in vitro, not blocked at concentrations below this) of the same compound?
Answer: ≥ 10 µM
